Experimental data as given in patent US20090131409A1, “1,4,5,6,7,8-HEXAHYDRO -PYRROLO[2,3-d]AZEPINES AND -IMIDAZO[4,5-d]AZEPINES AS MODULATORS OF NUCLEAR RECEPTOR ACTIVITY” (Wyeth, priority 2007, published 2009).

Target: T1, Gal4/hFXR fusion protein (Homo sapiens, UniProt Q96RI1)
T1 sequence (Q96RI1 262-486 limits assumed): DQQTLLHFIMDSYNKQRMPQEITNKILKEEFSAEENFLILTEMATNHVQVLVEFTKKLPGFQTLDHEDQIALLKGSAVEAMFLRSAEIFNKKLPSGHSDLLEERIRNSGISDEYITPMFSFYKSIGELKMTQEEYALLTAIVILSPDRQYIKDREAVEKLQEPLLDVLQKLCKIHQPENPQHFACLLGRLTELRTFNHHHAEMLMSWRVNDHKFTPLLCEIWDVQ
Assay: Gal4/hFXR fusion protein agonist activity in human 293 cells (luciferase reporter)

`CC(C)OC(=O)C1CN(C(=O)c2cccc(C(F)(F)F)c2)CC(C)(C)c2cc(C#N)[nH]c21` (stereo not drawn) [iso-propyl 2-cyano-4,4-dimethyl-6-[3-(trifluoromethyl)benzoyl]-1,4,5,6,7,8-hexahydropyrrolo[2,3-d]azepine-8-carboxylate] was tested, and the EC50 was 2700 nM.

Compound `CC(C)OC(=O)C1CN(C(=O)c2ccc(F)cc2)CC(C)(C)c2cc(C#N)[nH]c21` (stereo not drawn) [isopropyl 2-cyano-6-(4-fluorobenzoyl)-4,4-dimethyl-1,4,5,6,7,8-hexahydropyrrolo[2,3-d]azepine-8-carboxylate] has an EC50 of 640 nM.

Compound `CC(C)OC(=O)C1CN(C(=O)C2CCCCC2)CC(C)(C)c2cc(C#N)[nH]c21` (stereo not drawn) [iso-propyl 2-cyano-6-(cyclohexylcarbonyl)-4,4-dimethyl-1,4,5,6,7,8-hexahydropyrrolo[2,3-d]azepine-8-carboxylate] has an EC50 of 1900 nM.

`CC(C)OC(=O)C1CN(C(=O)C2CCOCC2)CC(C)(C)c2cc(C#N)[nH]c21` (stereo not drawn) [isopropyl 2-cyano-4,4-dimethyl-6-(tetrahydro-2H-pyran-4-ylcarbonyl)-1,4,5,6,7,8-hexahydropyrrolo[2,3-d]azepine-8-carboxylate] showed an EC50 of 3300 nM.

Compound `CC(C)OC(=O)C1CN(C(=O)c2cccc(Cl)c2)CC(C)(C)c2cc(C#N)[nH]c21` (stereo not drawn) [iso-propyl 6-(3-chlorobenzoyl)-2-cyano-4,4-dimethyl-1,4,5,6,7,8-hexahydropyrrolo[2,3-d]azepine-8-carboxylate] has an EC50 of 1300 nM.

`CC(C)OC(=O)C1CN(C(=O)c2cccc(F)c2)CC(C)(C)c2cc(C#N)[nH]c21` (stereo not drawn) [isopropyl 2-cyano-6-(3-fluorobenzoyl)-4,4-dimethyl-1,4,5,6,7,8-hexahydropyrrolo[2,3-d]azepine-8-carboxylate] was tested, and the EC50 was 1300 nM.

`CC(C)OC(=O)C1CN(C(=O)c2ccc(Cl)cc2)CC(C)(C)c2cc(C#N)[nH]c21` (stereo not drawn) [iso-propyl 6-(4-chlorobenzoyl)-2-cyano-4,4-dimethyl-1,4,5,6,7,8-hexahydropyrrolo[2,3-d]azepine-8-carboxylate] showed an EC50 of 4100 nM.

For `CC(C)OC(=O)C1CN(C(=O)c2ccc(C#N)cc2)CC(C)(C)c2cc(C#N)[nH]c21` (stereo not drawn) [iso-propyl 2-cyano-6-(4-cyanobenzoyl)-4,4-dimethyl-1,4,5,6,7,8-hexahydropyrrolo[2,3-d]azepine-8-carboxylate], the EC50 was 5700 nM.

Compound `CC(C)OC(=O)C1CN(C(=O)c2ccc(F)c(F)c2)CC(C)(C)c2cc(C#N)[nH]c21` (stereo not drawn) [isopropyl 2-cyano-6-(3,4-difluorobenzoyl)-4,4-dimethyl-1,4,5,6,7,8-hexahydropyrrolo[2,3-d]azepine-8-carboxylate] has an EC50 of 280 nM.
